Test results taken from patent publication US20230085307A1, “PYRIDAZINONE COMPOUND AND HERBICIDE” (NISSAN CHEMICAL CORPORATION, priority 2019, published 2023).

Assays:
green foxtail [1] = assay: Test Example 5: herbicidal effect by foliage application, plastic box (Table 20, symbol G); type: in vivo, green foxtail (Setaria viridis); conditions: foliage application; for G: green foxtail, herbicidal effect: AAH 320 g/ha; for herbicidal effect on G: green foxtail: evaluated three weeks after application
Method in brief: (§1)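 Plants sown in sterilized diluvial soil and grown 14 days in a greenhouse at 25° C to 30° C, then sprayed on the foliage with the compound's emulsion diluted in water to a predetermined herbicide amount. Injury to weeds and crops scored three weeks after application on a visual rating scale.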

barnyard grass [2] = assay: Test Example 4: herbicidal effect by soil treatment (Table 19, symbol H); type: in vivo, barnyard grass (Echinochloa crus-galli)
Method in brief: (§2)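 Three weeks of greenhouse growth at 25° C. to 30° C. followed a uniform surface spray of water-diluted emulsion at a predetermined herbicide amount. Seeds had been sown beforehand under about 1.5 cm of sterilized diluvial soil. Grading followed criteria set out in an earlier test.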

chickweed [3] = assay: Test Example 5: herbicidal effect by foliage application, plastic box (Table 20, symbol P); type: in vivo, common chickweed (Stellaria media); conditions: foliage application; for P: chickweed, herbicidal effect: AAH 320 g/ha; for herbicidal effect on P: chickweed: evaluated three weeks after application
Method in brief: as §1

chickweed [4] = assay: Test Example 4: herbicidal effect by soil treatment (Table 19, symbol P); type: in vivo, common chickweed (Stellaria media)
Method in brief: as §2

barnyard grass [5] = assay: Test Example 3: herbicidal effect by foliage application, Wagner pot (Table 18, symbol H); type: in vivo, barnyard grass (Echinochloa crus-galli); conditions: for herbicidal effect on H (barnyard grass), rating 0-5: 320 g/ha
Method in brief: (§3)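 Plants were sown in alluvial soil held under 0.1–0.5 cm standing water and grown 14 days in a greenhouse at 25–30 °C. An emulsifiable formulation, water-diluted to the set dose, was then sprayed onto the foliage, and effects were scored three weeks later using previously defined criteria.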

Japanese bulrush = assay: Test Example 2: herbicidal activity, application during weed generation under submerged conditions (Table 17, symbol B); type: in vivo, Japanese bulrush (Schoenoplectus juncoides); conditions: AAH 320 g/ha; application during weed generation, submerged conditions
Method in brief: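 Wagner pot, alluvial soil, 4 cm flood; mixed sowing of all species; greenhouse 25° C.–30° C. Emulsifiable formulation, water-diluted to predetermined dose, applied to paddy water at 1–2 leaf stage. Effect rated at 3 wk using the earlier test's scoring criteria.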

blackgrass = assay: Test Example 5: herbicidal effect by foliage application, plastic box (Table 20, symbol J); type: in vivo, blackgrass (Alopecurus myosuroides); conditions: foliage application; for J: blackgrass, herbicidal effect: AAH 320 g/ha; for herbicidal effect on J: blackgrass: evaluated three weeks after application
Method in brief: as §1

redroot pigweed [6] = assay: Test Example 5: herbicidal effect by foliage application, plastic box (Table 20, symbol N); type: in vivo, redroot pigweed (Amaranthus retroflexus); conditions: foliage application; for N: redroot pigweed, herbicidal effect: AAH 320 g/ha; for herbicidal effect on N: redroot pigweed: evaluated three weeks after application
Method in brief: as §1

southern crabgrass = assay: Test Example 5: herbicidal effect by foliage application, plastic box (Table 20, symbol F); type: in vivo, southern crabgrass (Digitaria ciliaris); conditions: foliage application; for F: southern crabgrass, herbicidal effect: AAH 320 g/ha; for herbicidal effect on F: southern crabgrass: evaluated three weeks after application
Method in brief: as §1

redroot pigweed [7] = assay: Test Example 4: herbicidal effect by soil treatment (Table 19, symbol N); type: in vivo, redroot pigweed (Amaranthus retroflexus)
Method in brief: as §2

green foxtail [8] = assay: Test Example 4: herbicidal effect by soil treatment (Table 19, symbol G); type: in vivo, green foxtail (Setaria viridis)
Method in brief: as §2

rice flat sedge = assay: Test Example 3: herbicidal effect by foliage application, Wagner pot (Table 18, symbol E); type: in vivo, rice flat sedge (Cyperus iria); conditions: for herbicidal effect on E (rice flat sedge), rating 0-5: 320 g/ha
Method in brief: as §3

velvetleaf = assay: Test Example 4: herbicidal effect by soil treatment (Table 19, symbol M); type: in vivo, velvetleaf (Abutilon theophrasti)
Method in brief: as §2

Italian ryegrass = assay: Test Example 5: herbicidal effect by foliage application, plastic box (Table 20, symbol K); type: in vivo, Italian ryegrass (Lolium multiflorum); conditions: foliage application; for K: Italian ryegrass, herbicidal effect: AAH 320 g/ha; for herbicidal effect on K: Italian ryegrass: evaluated three weeks after application
Method in brief: as §1

oval-leafed pondweed = assay: Test Example 1: herbicidal activity, application before weed generation under submerged conditions (Table 16, symbol C); type: in vivo, oval-leafed pondweed (Monochoria vaginalis); conditions: 320 g/ha applied herbicide
Method in brief: (§4)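 Alluvial soil was flooded to 4 cm depth, weed seeds were sown mixed and 2.5-leaf rice seedlings were transplanted. On sowing day, the compound's emulsion, diluted in water to a set dose, was applied to the water surface. Plants grew at 25–30 °C and were scored 0–5 after three weeks.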

late watergrass = assay: Test Example 1: herbicidal activity, application before weed generation under submerged conditions (Table 16, symbol A); type: in vivo, late watergrass (Echinochloa oryzicola); conditions: 320 g/ha applied herbicide
Method in brief: as §4

[9] = 320 g/ha, three weeks after application
[10] = amount of applied herbicide 320 g/ha

Compound | G: green foxtail, herbicidal effect (green foxtail [1]; three weeks after application) | H: barnyard grass, herbicidal effect rating (barnyard grass [2]; AAH 320 g/ha) | P: chickweed, herbicidal effect (chickweed [3]; three weeks after application) | P: chickweed, herbicidal effect rating (chickweed [4]; AAH 320 g/ha) | herbicidal effect on H (barnyard grass), rating 0-5 (barnyard grass [5]) | herbicidal effect rating, B: Japanese bulrush (Japanese bulrush) | J: blackgrass, herbicidal effect (blackgrass; three weeks after application) | N: redroot pigweed, herbicidal effect (redroot pigweed [6]; three weeks after application) | F: southern crabgrass, herbicidal effect (southern crabgrass; three weeks after application) | N: redroot pigweed, herbicidal effect rating (redroot pigweed [7]; AAH 320 g/ha) | G: green foxtail, herbicidal effect rating (green foxtail [8]; AAH 320 g/ha) | herbicidal effect on E (rice flat sedge), rating 0-5 (rice flat sedge) | M: velvetleaf, herbicidal effect rating (velvetleaf; AAH 320 g/ha) | K: Italian ryegrass, herbicidal effect (Italian ryegrass; three weeks after application) | Herbicidal effect on C: oval-leafed pondweed (grade 0-5) (oval-leafed pondweed) | Herbicidal effect on A: late watergrass (grade 0-5) (late watergrass) | herbicidal effect on G: green foxtail (green foxtail [1]; 320 g/ha) | herbicidal effect on P: chickweed (chickweed [3]; 320 g/ha) | herbicidal effect on J: blackgrass (blackgrass; 320 g/ha) | herbicidal effect on N: redroot pigweed (redroot pigweed [6]; 320 g/ha) | also measured
CCCC(=O)Oc1c(C)nn(C)c(=O)c1-c1c(-c2ccc([N+](=O)[O-])cc2)sc2ccccc12 [1-152] | 5 (Herbicidal rate of 90% or more (almost completely withered)) | 3 (Herbicidal rate of 40% or more and less than 70%) | 5 (Herbicidal rate of 90% or more (almost completely withered)) | 3 (Herbicidal rate of 40% or more and less than 70%) | 5 (Herbicidal rate of 90% or more (almost completely withered)) | 3 (Herbicidal rate of 40% or more and less than 70%) | 0 (Herbicidal rate of 5% or less (almost no effect)) | 5 (Herbicidal rate of 90% or more (almost completely withered)) | 4 (Herbicidal rate of 70% or more and less than 90%) | 3 (Herbicidal rate of 40% or more and less than 70%) | 2 (Herbicidal rate of 20% or more and less than 40%) | 3 (Herbicidal rate of 40% or more and less than 70%) | 0 (Herbicidal rate of 5% or less (almost no effect)) | 4 (Herbicidal rate of 70% or more and less than 90%) | 5 (Herbicidal rate of 90% or more (almost completely withered)) | 4 (Herbicidal rate of 70% or more and less than 90%) | – | – | – | – | –
COCCOc1ccc(-c2sc3ccc(F)cc3c2-c2c(O)c(C)nn(C)c2=O)cc1 [2-056] | – | – | – | – | 5 (Herbicidal rate of 90% or more (almost completely withered)) | 3 (Herbicidal rate of 40% or more and less than 70%) | – | – | – | – | – | 5 (Herbicidal rate of 90% or more (almost completely withered)) | – | – | 5 (Herbicidal rate of 90% or more (almost completely withered)) | 3 (Herbicidal rate of 40% or more and less than 70%) | 5 (Herbicidal rate of 90% or more (almost completely withered)) | 5 (Herbicidal rate of 90% or more (almost completely withered)) | 5 (Herbicidal rate of 90% or more (almost completely withered)) | 5 (Herbicidal rate of 90% or more (almost completely withered)) | herbicidal effect rating, H: barnyard grass (barnyard grass [2]; 320 g/ha): 5 (Herbicidal rate of 90% or more (almost completely withered)); herbicidal effect rating, P: chickweed (chickweed [4]; 320 g/ha): 5 (Herbicidal rate of 90% or more (almost completely withered)); herbicidal effect on F: southern crabgrass (southern crabgrass; 320 g/ha): 5 (Herbicidal rate of 90% or more (almost completely withered)); herbicidal effect rating, N: redroot pigweed (redroot pigweed [7]; 320 g/ha): 5 (Herbicidal rate of 90% or more (almost completely withered)); herbicidal effect rating, G: green foxtail (green foxtail [8]; 320 g/ha): 5 (Herbicidal rate of 90% or more (almost completely withered)); herbicidal effect rating, M: velvetleaf (velvetleaf; 320 g/ha): 5 (Herbicidal rate of 90% or more (almost completely withered)); herbicidal effect on K: Italian ryegrass (Italian ryegrass; 320 g/ha): 4 (Herbicidal rate of 70% or more and less than 90%)
CCCCOc1ccc(-c2sc3ccccc3c2-c2c(O)c(C)nn(C)c2=O)cc1 [1-024] | – | – | – | – | 5 (Herbicidal rate of 90% or more (almost completely withered)) | 4 (Herbicidal rate of 70% or more and less than 90%) | – | – | – | – | – | 5 (Herbicidal rate of 90% or more (almost completely withered)) | – | – | 5 (Herbicidal rate of 90% or more (almost completely withered)) | 5 (Herbicidal rate of 90% or more (almost completely withered)) | – | – | – | – | herbicidal effect grade, G: green foxtail (green foxtail [1]; [9]): 5 (Herbicidal rate of 90% or more (almost completely withered)); herbicidal effect rating, H: barnyard grass (barnyard grass [2]; [10]): 3 (Herbicidal rate of 40% or more and less than 70%); herbicidal effect grade, P: chickweed (chickweed [3]; [9]): 5 (Herbicidal rate of 90% or more (almost completely withered)); herbicidal effect rating, P: chickweed (chickweed [4]; [10]): 4 (Herbicidal rate of 70% or more and less than 90%); herbicidal effect grade, J: blackgrass (blackgrass; [9]): 4 (Herbicidal rate of 70% or more and less than 90%); herbicidal effect grade, N: redroot pigweed (redroot pigweed [6]; [9]): 5 (Herbicidal rate of 90% or more (almost completely withered)); herbicidal effect grade, F: southern crabgrass (southern crabgrass; [9]): 5 (Herbicidal rate of 90% or more (almost completely withered)); herbicidal effect rating, N: redroot pigweed (redroot pigweed [7]; [10]): 4 (Herbicidal rate of 70% or more and less than 90%); herbicidal effect rating, G: green foxtail (green foxtail [8]; [10]): 0 (Herbicidal rate of 5% or less (almost no effect)); herbicidal effect rating, M: velvetleaf (velvetleaf; [10]): 4 (Herbicidal rate of 70% or more and less than 90%); herbicidal effect grade, K: Italian ryegrass (Italian ryegrass; [9]): 4 (Herbicidal rate of 70% or more and less than 90%)
Cc1nn(C)c(=O)c(-c2c(-c3ccc(C#N)cc3)sc3ccc(Cl)cc23)c1O [2-112] | – | – | – | – | – | 0 (Herbicidal rate of 5% or less (almost no effect)) | – | – | – | – | – | – | – | – | 0 (Herbicidal rate of 5% or less (almost no effect)) | 0 (Herbicidal rate of 5% or less (almost no effect)) | 4 (Herbicidal rate of 70% or more and less than 90%) | 5 (Herbicidal rate of 90% or more (almost completely withered)) | 5 (Herbicidal rate of 90% or more (almost completely withered)) | 5 (Herbicidal rate of 90% or more (almost completely withered)) | H: barnyard grass, herbicidal effect rating (barnyard grass [2]; [10]): 0 (Herbicidal rate of 5% or less (almost no effect)); P: chickweed, herbicidal effect rating (chickweed [4]; [10]): 5 (Herbicidal rate of 90% or more (almost completely withered)); herbicidal effect on H: barnyard grass (barnyard grass [5]; [10]): 5 (Herbicidal rate of 90% or more (almost completely withered)); herbicidal effect on F: southern crabgrass (southern crabgrass; 320 g/ha): 4 (Herbicidal rate of 70% or more and less than 90%); N: redroot pigweed, herbicidal effect rating (redroot pigweed [7]; [10]): 5 (Herbicidal rate of 90% or more (almost completely withered)); G: green foxtail, herbicidal effect rating (green foxtail [8]; [10]): 0 (Herbicidal rate of 5% or less (almost no effect)); herbicidal effect on E: rice flat sedge (rice flat sedge; [10]): 5 (Herbicidal rate of 90% or more (almost completely withered)); M: velvetleaf, herbicidal effect rating (velvetleaf; [10]): 4 (Herbicidal rate of 70% or more and less than 90%); herbicidal effect on K: Italian ryegrass (Italian ryegrass; 320 g/ha): 5 (Herbicidal rate of 90% or more (almost completely withered))
Cc1nn(C)c(=O)c(-c2c(-c3ccc([N+](=O)[O-])cc3)sc3ccccc23)c1O [1-151] | 3 (Herbicidal rate of 40% or more and less than 70%) | 0 (Herbicidal rate of 5% or less (almost no effect)) | 5 (Herbicidal rate of 90% or more (almost completely withered)) | 0 (Herbicidal rate of 5% or less (almost no effect)) | 4 (Herbicidal rate of 70% or more and less than 90%) | 2 (Herbicidal rate of 20% or more and less than 40%) | 0 (Herbicidal rate of 5% or less (almost no effect)) | 5 (Herbicidal rate of 90% or more (almost completely withered)) | 4 (Herbicidal rate of 70% or more and less than 90%) | 3 (Herbicidal rate of 40% or more and less than 70%) | 0 (Herbicidal rate of 5% or less (almost no effect)) | 5 (Herbicidal rate of 90% or more (almost completely withered)) | 0 (Herbicidal rate of 5% or less (almost no effect)) | 5 (Herbicidal rate of 90% or more (almost completely withered)) | 3 (Herbicidal rate of 40% or more and less than 70%) | 3 (Herbicidal rate of 40% or more and less than 70%) | – | – | – | – | –
